According to US20250288687A1, “COMBINATION OF ANTIBODY-DRUG CONJUGATES AND DNMT INHIBITORS” (priority 2022, published 2025):

Tests used:
[1] = tested on: TROP2 and SLFN11 expression; conditions: decitabine treatment; cited from earlier work
[2] = tested on: xenograft cell lines of metaplastic cancer origin and mesenchymal subtype breast cancer cell lines; conditions: sacituzumab govitecan combined with decitabine; cited from earlier work
[3] = tested on: DLD-1 xenograft mouse model; assay: Antitumor test, IMMU-132 with or without decitabine pre-treatment; format: in vivo, BALB/c-nu mice; conditions: IMMU-132 10 mg/kg IV Day 7, 14; with vs without DAC 0.5 mg/kg SC Day 0-4 pre-treatment; Day 28, Welch's t-test; FIG. 15
Method: Female BALB/c-nu mice aged 5 weeks (The Jackson Laboratory Japan, Inc.) were used, following 5 days acclimatization before entry into the study.
(§1) 3×10^6 of DLD-1 cells suspended in saline were implanted subcutaneously onto the flank of the mice. The major axis and the minor axis of the tumor were measured twice a week with an electronic digital caliper and the tumor volume was calculated by the following equation:
When the tumor volume reached approximately 100-150 mm^3, the tumor-bearing mice were randomly assigned to the treatment groups (Day 0) as shown in Table 2.
Statistical significance between IMMU-132 group and Decitabine+IMMU-132 group was evaluated using Welch's t-test on the tumor volumes at the day of the final measurement (Day 28).
Decitabine (DAC) was dissolved with Phosphate-buffered saline (PBS) and subcutaneously administered to the mice. IMMU-132 was dissolved with ABS buffer (10 mM Acetate buffer [pH5.5], 5% sorbitol) and intravenously administered to the tail vein of the mice. The dose volume of the compounds for each mouse was calculated based on the latest individual body weight measured within 2 days before dosing. DAC was subcutaneously administered at 0.5 mg/kg once a day from Day 0 to Day 4 (5 dosing in total). IMMU-132 was intravenously administered at 10 mg/kg to the tail vein on Day 7 and Day 14 (Weekly dosing×2).

DLD-1 cells [4] = assay: Cell growth inhibition study, DS-1062a with or without azacitidine pre-treatment (CellTiter-Glo); format: cell-based, Human; conditions: AZA (10, 3.3, 1.1 μM, 3 days) treated vs AZA untreated cells, DS-1062a 0.1-100 nM, 6 days, FIG. 14
Method: Human colorectal cancer cell line DLD-1 was incubated with RPMI1640 medium supplemented with 10% (v/v) heat-inactivated FBS (Medium), with or without Azacitidine (AZA) at 10, 3.3 and 1.1 μM at 37° C. under 5% CO2 for 3 days. The cells were harvested and re-seeded at 1000 cells/90 μL/well into a 96-well black clear bottom plate, and incubated overnight at 37° C. under 5% CO2. Then 10 μL of the DS-1062a solutions diluted with the Medium at the concentrations from 1000 nM to 1 nM were added into the wells and incubated for 6 days. The final concentrations of DS-1062a were 100, 10, 1 and 0.1 nM. After the incubation, the cellular ATP levels were measured using CellTiter-Glo Luminescent Cell Viability Assay (Promega Corporation) and a microplate reader.
Cell viability, defined as relative percent to the value of DS-1062a non-treated cells in each group treated with or without AZA, was assessed (N=1 (triplicate), mean±SD).
Individual cell viability (%) was calculated by the following equation;
(§2) [formula] • T: individual luminescence intensity of the wells treated with DS-1062a at each concentration • C: mean luminescence intensity of the wells treated without DS-1062a

DLD-1 cells [5] = assay: Cell growth inhibition study, DS-1062a with or without decitabine pre-treatment (CellTiter-Glo); format: cell-based, Human; conditions: DAC (1, 0.3, 0.1 μM, 3 days) treated vs untreated cells, DS-1062a 0.1-100 nM, 6 days, FIG. 12A
Method: (§3) Human colorectal cancer cell lines DLD-1 and HCT-15, obtained from American Type Culture Collection (ATCC), were incubated with RPMI1640 medium supplemented with 10% (v/v) heat-inactivated FBS, 1% (v/v) penicillin-streptomycin solution and 1 mM sodium pyruvate (Medium), with or without Decitabine (DAC) (Tokyo Chemical Industry Co., Ltd) at 1, 0.3 and 0.1 μM at 37° C. under 5% CO2 for 3 days. The cells were harvested and re-seeded at 1000 cells/80 μL/well into 96-well black clear bottom plates, and incubated overnight at 37° C. under 5% CO2. Then 20 μL of the DS-1062a solutions diluted with the Medium at the concentrations from 500 nM to 0.5 nM were added into the wells and incubated for 6 days for DLD-1 cells, and for 8 days for HCT-15 cells, respectively. The final concentrations of DS-1062a were 100, 10, 1 and 0.1 nM. After the incubation, the cellular ATP levels were measured using CellTiter-Glo Luminescent Cell Viability Assay (Promega) and a microplate reader.
(§4) Cell viability, defined as relative percent to the value of DS-1062a non-treated cells in each group treated with or without DAC, was assessed (N=1 (triplicate), mean±SD).
(§5) Individual cell viability (%) was calculated by the following equation:
as §2

HCT-15 cells = assay: as above; format: cell-based, Human; conditions: DAC (1, 0.3, 0.1 μM, 3 days) treated vs untreated cells, DS-1062a 0.1-100 nM, 8 days, FIG. 12B
Method: as §3, §4, §5, §2

[6] = tested on: DLD-1 xenograft mouse model; assay: Antitumor test, DS-1062a with or without decitabine pre-treatment; format: in vivo, BALB/c-nu mice; conditions: DS-1062a 10 mg/kg IV Day 7; DAC 0.5 mg/kg SC Day 0-4 pretreated vs untreated group; Day 28, Welch's t-test, P<0.05; FIG. 13
Method: Female BALB/c-nu mice aged 5-6 weeks (The Jackson Laboratory Japan, Inc.) were used, following 4 days acclimatisation before entry into the study.
as §1
When the tumor volume reached approximately 100-150 mm^3, the tumor-bearing mice were randomly assigned to treatment groups (Day 0) as shown in Table 1:
Decitabine (Tokyo Chemical Industry Co., Ltd) was dissolved and diluted with Phosphate-buffered saline (PBS) and subcutaneously administered to the mice. DS-1062a solution was diluted with ABS buffer (10 mM Acetate buffer [pH5.5], 5% sorbitol) and intravenously administered to the tail vein of the mice. The dose of the compounds for each mouse was calculated based on the individual body weight on the day of dosing. Decitabine was subcutaneously administered at 0.5 mg/kg once a day from Day 0 to Day 4 (5 dosing in total). […] Statistical significance between the ‘DS-1062a’ group and the ‘Decitabine+DS-1062a’ group was evaluated using Welch's t-test on the tumor volumes at the day of the final measurement (Day 28).

Compound: Nc1ncn([C@H]2C[C@H](O)[C@@H](CO)O2)c(=O)n1 [decitabine, 5-aza-2′-deoxycytidine]
- TROP2 and SLFN11 expression [1]: upregulates

Compound: Sacituzumab govitecan [IMMU-132]
- antitumor efficacy [2]: enhances
- antitumor activity (tumor volume) [3]: not significantly different

Compound: datopotamab deruxtecan [DS-1062a]
- cell growth inhibitory activity (cell viability) (DLD-1 cells [4]): enhanced
- cell growth inhibitory activity (cell viability) (DLD-1 cells [5]): enhanced
- cell growth inhibitory activity (cell viability) (HCT-15 cells): enhanced
- antitumor activity (tumor volume) [6]: significantly enhanced
